Compound in experiment [1]: T1, C[C@H]1CNCCN1c1nccc(-c2noc3c2CCC[C@@]32CCCc3sc(N)c(C#N)c32)n1 [BI-2493]
Nature of the experiment: 1 - AUC of viability dose-response curve (sensitivity) (fraction); higher = more sensitive. Conditions: 5 days. Here is the method:
(§1)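 PRISM pooled barcoded cancer cell line viability screen (Broad Institute) with BI-2493 at 8 doses in threefold dilutions from 0.00457 to 10 µmol/L, 5-day treatment; curves fitted per cell line. IC50 is undefined (placeholder) for resistant lines. AUC is capped at 1, and sensitivity is reported as 1 − AUC.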

Compound in experiment [2]: T1, BI-2493
The conditions noted are these: 5 days. Here is the method: as §1

A value given as a limit tells only on which side of the number the result lay.

Turning to MFE296_ENDOMETRIUM, the “1 - AUC of viability dose-response curve” value with BI-2493 [1] amounted to 0.136. For the same test system, in the experiment with BI-2493 [2], the “IC50 of cell viability” value amounted to 9.19 µM.

As for SUIT2_PANCREAS, the “1 - AUC of viability dose-response curve” value with BI-2493 [1] came out at 0.123. In the experiment with BI-2493 [2], the “IC50 of cell viability” value is 4.96 µM.

For VMCUB1_URINARY_TRACT, the “1 - AUC of viability dose-response curve” value with BI-2493 [1] turned out to be 0.15. For the same test system, the “IC50 of cell viability” value with BI-2493 [2] came out at 3.76 µM.

In the case of KMRC20_KIDNEY, in the experiment with BI-2493 [1], the “1 - AUC of viability dose-response curve” value came to 0.185. Further, the “IC50 of cell viability” value with BI-2493 [2] came out at 4.73 µM.

Consider MEWO_SKIN, for which the “1 - AUC of viability dose-response curve” value in the experiment with BI-2493 [1] came out at 0.0577. The “IC50 of cell viability” value with BI-2493 [2] came to 9.6 µM.

Regarding “TANOUE_HAEMATOPOIETIC_AND_LYMPHOID_TISSUE”, the “1 - AUC of viability dose-response curve” value in the experiment with BI-2493 [1] came to 0.0128. The “IC50 of cell viability” value with BI-2493 [2] is 9.36 µM.

For KP4_PANCREAS, the “1 - AUC of viability dose-response curve” value in the experiment with BI-2493 [1] turned out to be 0.189. The “IC50 of cell viability” value with BI-2493 [2] is 4.92 µM.

In the case of MKN45_STOMACH, the “1 - AUC of viability dose-response curve” value in the experiment with BI-2493 [1] worked out at 0.401. Besides, the “IC50 of cell viability” value in the experiment with BI-2493 [2] was 0.5 µM.

In the case of GCT27_TESTIS, in the experiment with BI-2493 [1], the “1 - AUC of viability dose-response curve” value came to 0.128. Besides, the “IC50 of cell viability” value with BI-2493 [2] was more than 10 µM.

OUMS23_LARGE_INTESTINE: in the experiment with BI-2493 [1], the “1 - AUC of viability dose-response curve” value stood at 0.165. Besides, the “IC50 of cell viability” value with BI-2493 [2] turned out to be 8.65 µM.

Regarding RH28_SOFT_TISSUE, in the experiment with BI-2493 [1], the “1 - AUC of viability dose-response curve” value was 0.0907. For the same test system, the “IC50 of cell viability” value in the experiment with BI-2493 [2] came out at 5.97 µM.

Regarding PEDS015T_SOFT_TISSUE, the “1 - AUC of viability dose-response curve” value with BI-2493 [1] was 0.0985. In addition, the “IC50 of cell viability” value in the experiment with BI-2493 [2] was more than 10 µM.

Consider HUH6_LIVER, for which the “1 - AUC of viability dose-response curve” value with BI-2493 [1] amounted to 0.0714. The “IC50 of cell viability” value in the experiment with BI-2493 [2] is 6.78 µM.

For A375_SKIN, the “1 - AUC of viability dose-response curve” value in the experiment with BI-2493 [1] came out at 0.016. In addition, the “IC50 of cell viability” value in the experiment with BI-2493 [2] was 9.23 µM.

Take NCIH2347_LUNG: the “1 - AUC of viability dose-response curve” value with BI-2493 [1] came out at 0.138. Further, the “IC50 of cell viability” value with BI-2493 [2] was 4.63 µM.

For the test system K029AX_SKIN, the “1 - AUC of viability dose-response curve” value with BI-2493 [1] stood at 0.058. Further, the “IC50 of cell viability” value with BI-2493 [2] turned out to be 7.21 µM.

As for SNU119_OVARY, the “1 - AUC of viability dose-response curve” value with BI-2493 [1] was 0.162. In the experiment with BI-2493 [2], the “IC50 of cell viability” value was 5.65 µM.

Take ES2_OVARY: the “1 - AUC of viability dose-response curve” value with BI-2493 [1] turned out to be 0.00984. Moreover, in the experiment with BI-2493 [2], the “IC50 of cell viability” value turned out to be 9.51 µM.

NCIH1975_LUNG: in the experiment with BI-2493 [1], the “1 - AUC of viability dose-response curve” value was 0.0712. For the same test system, the “IC50 of cell viability” value in the experiment with BI-2493 [2] was found to be 6.8 µM.

For SJSA1_BONE, the “1 - AUC of viability dose-response curve” value with BI-2493 [1] came to 0.095. In the experiment with BI-2493 [2], the “IC50 of cell viability” value came to 7.93 µM.

For EFO27_OVARY, the “1 - AUC of viability dose-response curve” value with BI-2493 [1] is 0.167. Also, the “IC50 of cell viability” value with BI-2493 [2] came out at 9.28 µM.

Consider NCIH1341_LUNG, for which the “1 - AUC of viability dose-response curve” value in the experiment with BI-2493 [1] worked out at 0.146. In addition, the “IC50 of cell viability” value with BI-2493 [2] was more than 10 µM.

With HEC1_ENDOMETRIUM, the “1 - AUC of viability dose-response curve” value with BI-2493 [1] was determined as 0.131. Moreover, the “IC50 of cell viability” value in the experiment with BI-2493 [2] turned out to be 5.02 µM.

Turning to “KMS18_HAEMATOPOIETIC_AND_LYMPHOID_TISSUE”, the “1 - AUC of viability dose-response curve” value with BI-2493 [1] came out at 0.13. In the experiment with BI-2493 [2], the “IC50 of cell viability” value stood at 5.38 µM.

Take “MOLP2_HAEMATOPOIETIC_AND_LYMPHOID_TISSUE”: the “1 - AUC of viability dose-response curve” value with BI-2493 [1] came out at 0.0525. Also, the “IC50 of cell viability” value with BI-2493 [2] turned out to be 6.56 µM.

For YKG1_CENTRAL_NERVOUS_SYSTEM, in the experiment with BI-2493 [1], the “1 - AUC of viability dose-response curve” value was 0.0786. Besides, the “IC50 of cell viability” value in the experiment with BI-2493 [2] was 9.17 µM.

With EWS502_BONE, the “1 - AUC of viability dose-response curve” value with BI-2493 [1] stood at 0.177. The “IC50 of cell viability” value with BI-2493 [2] was determined as 3.56 µM.

Consider 8505C_THYROID, for which the “1 - AUC of viability dose-response curve” value with BI-2493 [1] was found to be 0.00728. Further, in the experiment with BI-2493 [2], the “IC50 of cell viability” value turned out to be 9.69 µM.

As for TC205_BONE, the “1 - AUC of viability dose-response curve” value with BI-2493 [1] came to 0.082. Moreover, in the experiment with BI-2493 [2], the “IC50 of cell viability” value is more than 10 µM.

For SKGT4_OESOPHAGUS, the “1 - AUC of viability dose-response curve” value in the experiment with BI-2493 [1] came to 0.403. The “IC50 of cell viability” value with BI-2493 [2] amounted to 0.494 µM.

In the case of NCIH1792_LUNG, the “1 - AUC of viability dose-response curve” value with BI-2493 [1] is 0.342. In addition, in the experiment with BI-2493 [2], the “IC50 of cell viability” value came to 1.04 µM.

Regarding UPCISCC111_UPPER_AERODIGESTIVE_TRACT, the “1 - AUC of viability dose-response curve” value with BI-2493 [1] came to 0.158. Moreover, the “IC50 of cell viability” value with BI-2493 [2] came out at 4.12 µM.

For the test system 93T449_SOFT_TISSUE, the “1 - AUC of viability dose-response curve” value in the experiment with BI-2493 [1] stood at 0.0121. Also, in the experiment with BI-2493 [2], the “IC50 of cell viability” value worked out at 9.31 µM.

With “KCL22_HAEMATOPOIETIC_AND_LYMPHOID_TISSUE”, in the experiment with BI-2493 [1], the “1 - AUC of viability dose-response curve” value was determined as 0.193. Besides, the “IC50 of cell viability” value with BI-2493 [2] is 6.3 µM.

Take MDAMB175VII_BREAST: the “1 - AUC of viability dose-response curve” value in the experiment with BI-2493 [1] is 0.0449. Further, the “IC50 of cell viability” value with BI-2493 [2] was 8.51 µM.

For TGBC52TKB_BILIARY_TRACT, the “1 - AUC of viability dose-response curve” value in the experiment with BI-2493 [1] was 0.255. The “IC50 of cell viability” value with BI-2493 [2] amounted to 1.47 µM.

As to BICR6_UPPER_AERODIGESTIVE_TRACT, in the experiment with BI-2493 [1], the “1 - AUC of viability dose-response curve” value amounted to 0.178. Besides, in the experiment with BI-2493 [2], the “IC50 of cell viability” value is 4 µM.

(Values after the supplement of paper PMC11962398.)
